Results reported in patent US20140221283A1 (Indiana University Research and Technology Corporation, priority 2011, published 2014).
*1 amine or outer side, *2 acyl side, *3 side chain or, on linkers, in order; H or OH if unused. Where a SMILES comes first, the peptide text is derived from it. Where no end group is shown, it is not given here. Side-chain parts run from the residue outwards. [ ]: non-standard residue; d: D form. The star is where a group is joined. γGlu = O=C(O)[C@H](CCC(=O)[*:2])N[*:1]; Palmitoyl = CCCCCCCCCCCCCCCC(=O)*; Aib = CC(C)(N)C(=O)O

What was measured:
[1] = body weight of diet-induced obese (DIO) mice dosed daily for nine days (Example 7); type: in vivo; conditions: Day 9; for body weight reduction: 3 nmol/kg daily; for body weight loss: 9 nmol/kg daily
Experimental: (§1) Mice were administered a vehicle control or a dose of a peptide daily for nine days. The peptides tested in this study included a peptide of SEQ ID NO: 12, a peptide of SEQ ID NO: 17, a peptide of SEQ ID NO: 18, and a peptide of SEQ ID NO: 19. Doses of each peptide were varied—each of the peptides of SEQ ID NO: 12, 17, and 19 was administered at a dose of either 3 nmol/kg or 9 nmol/kg, while the peptide of SEQ ID NO: 18 was administered at a dose of 1 nmol/kg, 3 nmol/kg, or 9 nmol/kg. Data are expressed as mean±SEM.

human GLP-1R = human GLP-1R (Homo sapiens, UniProt P43220); test: firefly luciferase-based cAMP reporter assay, HEK293 cells co-transfected with GLP-1 receptor (Example 3); type: cell-based; parameters: expressed in transfected cells; host or cells: HEK293; conditions: procedure of Example 3
Chain of human GLP-1R (P43220 24-463): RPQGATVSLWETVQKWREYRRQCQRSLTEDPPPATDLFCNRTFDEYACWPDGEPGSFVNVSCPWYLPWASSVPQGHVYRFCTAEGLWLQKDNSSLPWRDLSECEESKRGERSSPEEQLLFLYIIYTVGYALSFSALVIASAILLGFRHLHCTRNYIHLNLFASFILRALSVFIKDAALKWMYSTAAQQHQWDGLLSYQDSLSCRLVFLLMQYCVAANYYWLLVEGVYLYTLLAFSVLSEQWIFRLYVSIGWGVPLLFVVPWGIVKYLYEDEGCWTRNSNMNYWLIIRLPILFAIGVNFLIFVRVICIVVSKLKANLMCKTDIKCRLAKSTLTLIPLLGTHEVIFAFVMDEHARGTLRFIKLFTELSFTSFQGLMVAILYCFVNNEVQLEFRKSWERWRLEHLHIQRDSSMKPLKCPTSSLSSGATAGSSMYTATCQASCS
Experimental: (§2) The ability of each peptide to induce cAMP was measured in a firefly luciferase-based reporter assay.
(§3) At the end of the incubation, 100 μL of LucLite luminescence substrate reagent (Perkin Elmer, Wellesley, Mass.) were added to each well.

GIP receptor = target: T1, GIP receptor (Homo sapiens, UniProt P48546); test: firefly luciferase-based cAMP reporter assay, HEK293 cells, GIP receptor (Example 3); type: cell-based; conditions: procedure of Example 3
T1 construct: expressed in transfected cells; host or cells: HEK293
T1 sequence (P48546 22-466): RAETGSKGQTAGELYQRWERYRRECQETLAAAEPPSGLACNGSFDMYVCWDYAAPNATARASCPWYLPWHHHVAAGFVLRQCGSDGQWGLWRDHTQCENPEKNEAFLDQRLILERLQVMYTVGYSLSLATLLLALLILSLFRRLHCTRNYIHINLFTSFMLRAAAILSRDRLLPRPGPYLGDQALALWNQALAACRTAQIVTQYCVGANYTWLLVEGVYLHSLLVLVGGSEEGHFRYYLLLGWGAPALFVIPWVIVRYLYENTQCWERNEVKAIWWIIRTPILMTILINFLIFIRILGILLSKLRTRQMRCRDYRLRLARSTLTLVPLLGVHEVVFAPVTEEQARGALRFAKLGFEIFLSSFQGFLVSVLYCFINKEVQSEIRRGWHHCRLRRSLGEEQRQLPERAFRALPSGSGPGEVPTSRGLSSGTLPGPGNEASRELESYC
Experimental: It is understood that a lower EC50 indicates higher activity or potency at the receptor.
as §2, §3
In some instances, the in vitro agonist activity at the GIP receptor was also tested.

glucagon receptor = target: T2, glucagon receptor (Homo sapiens, UniProt P47871); test: firefly luciferase-based cAMP reporter assay, HEK293 cells co-transfected with glucagon receptor (Example 3); type: cell-based; conditions: procedure of Example 3
T2 construct: expressed in transfected cells; host or cells: HEK293
T2 sequence (P47871 26-477): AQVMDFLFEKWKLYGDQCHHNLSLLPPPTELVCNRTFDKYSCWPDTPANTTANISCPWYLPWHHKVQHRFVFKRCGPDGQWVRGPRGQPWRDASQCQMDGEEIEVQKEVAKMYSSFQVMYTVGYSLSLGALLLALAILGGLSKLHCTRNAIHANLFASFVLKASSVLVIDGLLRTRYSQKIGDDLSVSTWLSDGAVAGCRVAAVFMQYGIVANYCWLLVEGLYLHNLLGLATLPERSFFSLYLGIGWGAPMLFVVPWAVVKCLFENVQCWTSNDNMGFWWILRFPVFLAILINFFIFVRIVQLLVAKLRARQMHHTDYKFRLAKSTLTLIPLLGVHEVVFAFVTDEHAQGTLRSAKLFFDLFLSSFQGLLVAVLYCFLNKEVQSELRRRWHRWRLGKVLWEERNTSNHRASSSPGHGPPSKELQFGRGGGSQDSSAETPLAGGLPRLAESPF
Experimental: as §2, §3

[2] = ambient glucose levels of DIO mice dosed daily for nine days (Example 7); type: in vivo; conditions: for decrease in ambient glucose vs. vehicle: by Day 4
Experimental: as §1
In addition to cumulative body weight change, ambient glucose levels of the DIO mice were measured.

EC50 (human GLP-1R) [nM]	EC50 (GIP receptor) [nM]	EC50 (glucagon receptor) [nM]	Compound	body weight reduction [1] [%]	body weight loss [1] [%]	decrease in ambient glucose vs. vehicle ([2]; 3 nmol/kg daily) [%]	decrease in ambient glucose vs. vehicle ([2]; 9 nmol/kg daily) [%]	decrease in glucose levels compared to vehicle control mice ([2]; 9 nmol/kg daily, Day 4) [%]	decrease in glucose levels compared to vehicle control mice ([2]; 9 nmol/kg daily, Day 7) [%]	decrease in glucose levels compared to vehicle control mice ([2]; 9 nmol/kg daily, Day 9) [%]
0.003	12.8	0.01	CCCCCCCCCCCCCCCC(=O)N[C@@H](CCC(=O)N[C@@H](CCC(=O)NCCCC[C@H](NC(=O)[C@H](CC(=O)O)NC(=O)[C@H](CO)NC(=O)[C@@H](NC(=O)[C@H](Cc1ccccc1)NC(=O)[C@@H](NC(=O)CNC(=O)[C@H](CCC(N)=O)NC(=O)C(C)(C)NC(=O)[C@@H](N)Cc1c[nH]cn1)[C@@H](C)O)[C@@H](C)O)C(=O)N[C@@H](CO)C(=O)N[C@@H](CCCCN)C(=O)N[C@@H](Cc1ccc(O)cc1)C(=O)N[C@@H](CC(C)C)C(=O)N[C@@H](CC(=O)O)C(=O)NC(C)(C)C(=O)N[C@@H](CCCNC(=N)N)C(=O)N[C@@H](C)C(=O)N[C@@H](C)C(=O)N[C@@H](CCC(N)=O)C(=O)N[C@@H](CC(=O)O)C(=O)N[C@@H](Cc1ccccc1)C(=O)N[C@H](C(=O)N[C@@H](CCC(N)=O)C(=O)N[C@@H](Cc1c[nH]c2ccccc12)C(=O)N[C@@H](CC(C)C)C(=O)N[C@@H](CCSC)C(=O)N[C@@H](CC(=O)O)C(=O)N[C@H](C(=O)N[C@@H](CCCCN)C(=O)N[C@@H](CCC(N)=O)C(=O)O)[C@@H](C)O)C(C)C)C(=O)O)C(=O)O [SEQ ID NO: 12] (H-H[Aib]QGTFTSDK([γGlu-γGlu-Palmitoyl])SKYLD[Aib]RAAQDFVQWLMDTKQ-OH; N-terminus assumed)	~5.3	~29.8	–	–	–	–	–
0.019	1.04	0.015	CCCCCCCCCCCCCCCC(=O)N[C@@H](CCC(=O)N[C@@H](CCC(=O)NCCCC[C@H](NC(=O)[C@H](CC(=O)O)NC(=O)[C@H](CO)NC(=O)[C@@H](NC(=O)[C@H](Cc1ccccc1)NC(=O)[C@@H](NC(=O)CNC(=O)[C@H](CCC(N)=O)NC(=O)C(C)(C)NC(=O)[C@@H](N)Cc1c[nH]cn1)[C@@H](C)O)[C@@H](C)O)C(=O)N[C@@H](CO)C(=O)N[C@@H](CCCCN)C(=O)N[C@@H](Cc1ccc(O)cc1)C(=O)N[C@@H](CC(C)C)C(=O)N[C@@H](CC(=O)O)C(=O)NC(C)(C)C(=O)N[C@@H](CCCNC(=N)N)C(=O)N[C@@H](C)C(=O)N[C@@H](C)C(=O)N[C@@H](CCC(N)=O)C(=O)N[C@@H](CC(=O)O)C(=O)N[C@@H](Cc1ccccc1)C(=O)N[C@H](C(=O)N[C@@H](CCC(N)=O)C(=O)N[C@@H](Cc1c[nH]c2ccccc12)C(=O)N[C@@H](CC(C)C)C(=O)N[C@@H](CC(C)C)C(=O)N[C@@H](CC(=O)O)C(=O)N[C@H](C(=O)N[C@@H](CCCCN)C(=O)N[C@@H](CCC(N)=O)C(=O)O)[C@@H](C)O)C(C)C)C(=O)O)C(=O)O [SEQ ID NO: 16] (H-H[Aib]QGTFTSDK([γGlu-γGlu-Palmitoyl])SKYLD[Aib]RAAQDFVQWLLDTKQ-OH; N-terminus assumed)	–	–	–	–	–	–	–
–	–	–	SEQ ID NO: 18: peptide of SEQ ID NO: 18 tested in DIO mice; sequence only in the sequence listing (HXQGTFTSDKSKYLDERAAQDFVQWLMDT; not fully specified; Xaa is AIB; Acylated with a C16 fatty acyl group via gamma- Glu-gamma-Glu spacer; C-terminal amidation)	~12.3	~26.8	−29	−29	–	–	–
–	–	–	SEQ ID NO: 19: peptide of SEQ ID NO: 19 tested in DIO mice; sequence only in the sequence listing (H[dS]QGTFTSDK([γGlu-Palmitoyl])SKYLDERAAQDFVQWLLDT-NH2; N-terminus assumed; SMILES CCCCCCCCCCCCCCCC(=O)N[C@@H](CCC(=O)NCCCC[C@H](NC(=O)[C@H](CC(=O)O)NC(=O)[C@H](CO)NC(=O)[C@@H](NC(=O)[C@H](Cc1ccccc1)NC(=O)[C@@H](NC(=O)CNC(=O)[C@H](CCC(N)=O)NC(=O)[C@@H](CO)NC(=O)[C@@H](N)Cc1c[nH]cn1)[C@@H](C)O)[C@@H](C)O)C(=O)N[C@@H](CO)C(=O)N[C@@H](CCCCN)C(=O)N[C@@H](Cc1ccc(O)cc1)C(=O)N[C@@H](CC(C)C)C(=O)N[C@@H](CC(=O)O)C(=O)N[C@@H](CCC(=O)O)C(=O)N[C@@H](CCCNC(=N)N)C(=O)N[C@@H](C)C(=O)N[C@@H](C)C(=O)N[C@@H](CCC(N)=O)C(=O)N[C@@H](CC(=O)O)C(=O)N[C@@H](Cc1ccccc1)C(=O)N[C@H](C(=O)N[C@@H](CCC(N)=O)C(=O)N[C@@H](Cc1c[nH]c2ccccc12)C(=O)N[C@@H](CC(C)C)C(=O)N[C@@H](CC(C)C)C(=O)N[C@@H](CC(=O)O)C(=O)N[C@H](C(N)=O)[C@@H](C)O)C(C)C)C(=O)O)	~8.1	~31.5	–	–	~40	~39	~26
